# From the SangsterLogP compilation
# Assay: method code SF-AS, from Novello, F.; Sprague, M. (1967). Structure-activity relations among the thiazole diuretics. Ind. Chim. Belge, 32(Spec.No.), 222-225.
# Settings: pH 6.4
row,logD,SMILES
1,1.11,NS(=O)(=O)c1cc2c(cc1Cl)NC(CSCc1ccccc1)NS2(=O)=O (stereo not drawn)

# Same assay, conditions: pH 6.5
row,SMILES,logD
1,CCCC1=Nc2cc(Cl)c(S(N)(=O)=O)cc2S(=O)(=O)N1,1.15
2,NS(=O)(=O)c1cc2c(cc1Cl)NC(CC1CCCC1)NS2(=O)=O (stereo not drawn),1.27
3,NS(=O)(=O)c1cc2c(cc1Br)N=CNS2(=O)=O,0
4,NS(=O)(=O)c1cc2c(cc1Cl)N=C(Cc1ccccc1)NS2(=O)=O,1.56
5,CCCCCC1=NS(=O)(=O)c2cc(S(N)(=O)=O)c(Cl)cc2N1,2.01
6,CC1=Nc2cc(Cl)c(S(N)(=O)=O)cc2S(=O)(=O)N1,0.03
7,NS(=O)(=O)c1cc2c(cc1Cl)NC(C1CC3C=CC1C3)NS2(=O)=O (stereo not drawn),1.8
8,NS(=O)(=O)c1cc2c(cc1[N+](=O)[O-])NCNS2(=O)=O,0.2
9,CCC1Nc2cc(Cl)c(S(N)(=O)=O)cc2S(=O)(=O)N1 (stereo not drawn),0.3
10,Cc1cc2c(cc1S(N)(=O)=O)S(=O)(=O)N=CN2,-0.32
11,NS(=O)(=O)c1cc2c(cc1C(F)(F)C(F)(F)F)N=CNS2(=O)=O,1.05
12,CC1Nc2cc(Cl)c(S(N)(=O)=O)cc2S(=O)(=O)N1 (stereo not drawn),0.08
13,NS(=O)(=O)c1cc2c(cc1Cl)NC(CCl)NS2(=O)=O (stereo not drawn),0.11
14,NS(=O)(=O)c1cc2c(cc1Br)NCNS2(=O)=O,0.08
15,NS(=O)(=O)c1ccc2c(c1)S(=O)(=O)NC(C(Cl)Cl)N2 (stereo not drawn),0.46
16,NS(=O)(=O)c1cc2c(cc1Cl)NC(Cc1ccccc1)NS2(=O)=O (stereo not drawn),0.93
17,CC1(C)Nc2cc(Cl)c(S(N)(=O)=O)cc2S(=O)(=O)N1,0.15
18,NS(=O)(=O)c1cc2c(cc1[N+](=O)[O-])N=CNS2(=O)=O,0.08
19,NS(=O)(=O)c1ccc2c(c1)S(=O)(=O)NC(Cc1ccccc1)N2 (stereo not drawn),1.03
20,Cc1cc2c(cc1S(N)(=O)=O)S(=O)(=O)NCN2,-0.22
21,CC(C)(C)C1Nc2cc(Cl)c(S(N)(=O)=O)cc2S(=O)(=O)N1 (stereo not drawn),0.36
22,CC1CCC2(CC1)Nc1ccc(S(N)(=O)=O)cc1S(=O)(=O)N2 (stereo not drawn),1.56

# More lines, now with the values ahead:
row,logD,SMILES
1,-0.62,NS(=O)(=O)c1ccc2c(c1)S(=O)(=O)NC=N2
2,1.24,NS(=O)(=O)c1ccc2c(c1)S(=O)(=O)NC(CC1CCCC1)N2 (stereo not drawn)
3,-0.52,NS(=O)(=O)c1ccc2c(c1)S(=O)(=O)NCN2
4,-0.29,NS(=O)(=O)c1cc2c(cc1F)N=CNS2(=O)=O
5,1,NS(=O)(=O)c1cc2c(cc1Cl)NC1(CCCCC1)NS2(=O)=O
6,1.1,NS(=O)(=O)c1cc2c(cc1Cl)N=C(c1ccccc1)NS2(=O)=O
7,0.85,CC1CCC2(CC1)Nc1cc(Cl)c(S(N)(=O)=O)cc1S(=O)(=O)N2 (stereo not drawn)
8,0.82,NS(=O)(=O)c1cc2c(cc1Cl)NC(C(Cl)(Cl)Cl)NS2(=O)=O (stereo not drawn)
9,0.49,NS(=O)(=O)c1cc2c(cc1Cl)NC(C(F)(F)F)NS2(=O)=O (stereo not drawn)
10,0.32,NS(=O)(=O)c1cc2c(cc1C(F)(F)F)N=CNS2(=O)=O
